These are literature values, as cited in patent publication EP2517696A1, “Extended release memantine tablet” (Ali Raif Ilaç Sanayi ve Ticaret Anonim Sirketi, priority 2011, dated 2012).

For data set [1] the following is noted: in vivo.
For data set [2] the following is noted: high dissolution and permeability.

Where a name gives a salt, the structure may show the parent alone.

Regarding `CC12CC3CC(C)(C1)CC(N)(C3)C2` [Memantine HCl, 3,5 dimethyl-1-adamantamine hydrochloride], in data set [1], the absolute bioavailability is given as 100%. Also, the BCS class entry in data set [2] is on record as “BCS 1 class”.
